Assays:
Rattus norvegicus [1] = species on record: Rattus norvegicus; assay: Vasorelaxant potency determined by measurement of IC50 value for relaxation of rat aorta precontracted with methoxamine; assay type: functional
Rattus norvegicus [2] = species on record: Rattus norvegicus; assay: Antiischemic potency is determined by EC25 value for increase in time to the onset of contracture in globally ischemic isolated perfused rat hearts.; assay type: functional
Rattus norvegicus [3] = species on record: Rattus norvegicus; assay: Ratio of the EC25 value for time to contracture and IC50 value for vasorelaxant potency indicates selectivity in vitro for the ischemic myocardium.; assay type: functional
Rattus norvegicus [4] = species on record: Rattus norvegicus; assay: Percent increase in cardio protective activity at concentration of 10 uM; assay type: functional, Heart
[5] = Oral bioavailability in rats was determined in vivo; assay type: ADME, organism-based; conditions: rat, read-out: Bioavailabiility
[6] = Maximum plasma concentration following oral administration of 30 umol/kg; assay type: ADME, organism-based; parameters: dose 30 umol/kg, route oral
[7] = Pharmacokinetic parameter Tmax following oral administration of 30 umol/kg; assay type: ADME, organism-based; conditions: in vivo
[8] = Apparent terminal elimination half life in rats; assay type: ADME, organism-based; conditions: rat, in vivo

| SMILES | IC50 (Rattus norvegicus [1]) | EC25 (Rattus norvegicus [2]) | Ratio (Rattus norvegicus [3]) | Increase (Rattus norvegicus [4]) | further results |
| --- | --- | --- | --- | --- | --- |
| Cc1noc(CN(c2ccccc2)[C@H]2c3cc(C#N)ccc3OC(C)(C)[C@@H]2O)n1 | > 30 µM | 10 µM | <0.33 |  |  |
| CCOC(=O)CN(c1ccc(Cl)cc1)[C@H]1c2cc(C#N)ccc2OC(C)(C)[C@@H]1O | > 30 µM | 6.5 µM | <0.22 |  |  |
| CC1(C)Oc2ccc(C#N)cc2[C@@H](N2CCCC2=O)[C@@H]1O [CROMAKALIM] |  | 8.9 µM | 278 |  |  |
| CCOC(=O)CCCN(c1ccccc1)[C@H]1c2cc(C#N)ccc2OC(C)(C)[C@@H]1O | > 30 µM | 5.7 µM |  |  |  |
| CCOC(=O)CN(c1nc2ccccc2o1)[C@H]1c2cc(C#N)ccc2OC(C)(C)[C@@H]1O | > 30 µM |  |  | 0% |  |
| CC1(C)Oc2ccc(C#N)cc2[C@@H](N(Cc2ncc[nH]2)c2ccc(Cl)cc2)[C@@H]1O | > 30 µM |  |  | 14% |  |
| CC1(C)Oc2ccc(C#N)cc2[C@H](N(Cc2ncco2)c2ccccc2)[C@H]1O | > 30 µM | 5.3 µM | <0.18 |  |  |
| CCNC(=O)CN(c1ccccc1)[C@H]1c2cc(C#N)ccc2OC(C)(C)[C@@H]1O | > 30 µM |  |  | 21% |  |
| CC1(C)Oc2ccc(C#N)cc2[C@H](N(Cc2ncc[nH]2)c2ccc(Cl)cc2)[C@H]1O [BMS-191095] | > 30 µM | 1.4 µM | <0.05 |  | bioavailability [5]: 47%; Cmax [6]: 1300 nM; Tmax [7]: 1.9 h; half-life [8]: 3 h |
| CC1(C)Oc2ccc(C#N)cc2[C@@H](/N=C(\NC#N)Nc2ccc(Cl)cc2)[C@@H]1O |  | 2.5 µM | 1.4 |  |  |
| CC1(C)Oc2ccc(C#N)cc2[C@H](Nc2ccccc2)[C@H]1O |  | 3.9 µM | 3.9 |  |  |
| COC(=O)c1cc2ccccc2n1[C@@H]1c2cc(C#N)ccc2OC(C)(C)[C@H]1O |  | 8.1 µM | 0.25 |  |  |
| CC(=O)NCCN(c1ccccc1)[C@H]1c2cc(C#N)ccc2OC(C)(C)[C@@H]1O | > 30 µM |  |  | 5% |  |
| CCOC(=O)CN(c1ccccc1)[C@H]1c2cc(C#N)ccc2OC(C)(C)[C@@H]1O | > 30 µM | 2.2 µM | <0.07 | 38% |  |
| CCOC(=O)C(=O)N(c1ccc(F)cc1)[C@H]1c2cc(C#N)ccc2OC(C)(C)[C@@H]1O | 43 µM |  |  | 0% |  |
| CCOC(=O)CN(c1ccccc1)[C@@H]1c2cc(C#N)ccc2OC(C)(C)[C@H]1O [listing 2 of 2 here] | > 30 µM |  |  | 5% |  |
| CC1(C)Oc2ccc(C#N)cc2[C@H](N(CC#N)c2ccccc2)[C@H]1O | 59 µM |  |  | 8% |  |

Continued, in another order:

| IC50 (Rattus norvegicus [1]) | SMILES | EC25 (Rattus norvegicus [2]) | Ratio (Rattus norvegicus [3]) | Increase (Rattus norvegicus [4]) | further results |
| --- | --- | --- | --- | --- | --- |
| > 30 µM | COCCN(c1ccccc1)[C@H]1c2cc(C#N)ccc2OC(C)(C)[C@@H]1O |  |  | 15% |  |
| 12 µM | CC1(C)Oc2ccc(C#N)cc2[C@H](N(Cc2ccco2)c2ccccc2)[C@H]1O | 3.2 µM | 0.27 |  |  |
| 27 µM | CCCCOC(=O)CN(c1ccccc1)[C@H]1c2cc(C#N)ccc2OC(C)(C)[C@@H]1O |  |  | 8% |  |
| > 30 µM | Cc1cc(CN(c2ccccc2)[C@H]2c3cc(C#N)ccc3OC(C)(C)[C@@H]2O)on1 |  |  | 11% |  |
| > 30 µM | CC1(C)Oc2ccc(C#N)cc2[C@H](N(Cc2ncc[nH]2)c2ccc(F)cc2)[C@H]1O | 3.3 µM | 0.11 |  |  |
| 47 µM | CCOP(=O)(CN(c1ccc(F)cc1)[C@H]1c2cc(C#N)ccc2OC(C)(C)[C@@H]1O)OCC | 4.9 µM | 0.104 |  |  |
| 54 µM | CCOC(=O)CCN(c1ccccc1)[C@H]1c2cc(C#N)ccc2OC(C)(C)[C@@H]1O |  |  | 26% |  |
| 2.2 µM | CCOC(=O)NN(c1ccccc1)[C@H]1c2cc(C#N)ccc2OC(C)(C)[C@@H]1O | 4.3 µM | 1.95 |  |  |
| 27 µM | CC1(C)Oc2ccc(C#N)cc2[C@H](N(CCS(C)(=O)=O)c2ccccc2)[C@H]1O |  |  | 0% |  |
| > 30 µM | CCOC(=O)CN(c1ccc(F)cc1)[C@H]1c2cc(C#N)ccc2OC(C)(C)[C@@H]1O | 3.8 µM | <0.017 |  |  |
| > 100 µM | CC1(C)Oc2ccc(C#N)cc2[C@H](N(CC(=O)O)c2ccccc2)[C@H]1O |  |  | 0% |  |
| 84 µM | CCOC(=O)CN(c1nc(C)cs1)[C@H]1c2cc(C#N)ccc2OC(C)(C)[C@@H]1O | 7.8 µM | <0.09 |  |  |
| > 30 µM | CCOC(=O)CN(c1ccccc1)[C@@H]1c2cc(C#N)ccc2OC(C)(C)[C@H]1O [listing 1 of 2 here] | 4.7 µM | <0.17 |  |  |
| > 30 µM | CC1(C)Oc2ccc(C#N)cc2[C@H](N(Cc2ncc[nH]2)c2ccccc2)[C@H]1O | 4.3 µM | <0.14 |  |  |
